US20230406833A1, “HERBICIDAL MALONAMIDES” (BASF SE, priority 2020, published 2023)

Assays:
Format in all cases: in vivo
[1] = test system: Echinocloa crus-galli (ECHCG); experiment: greenhouse post-emergence herbicidal test; conditions: scale from 0 to 100
From the text: (§1) The culture containers used were plastic flowerpots containing loamy sand with approximately 3.0% of humus as the substrate. The seeds of the test plants were sown separately for each species.
(§2) For the pre-emergence treatment, the active ingredients, which had been suspended or emulsified in water, were applied directly after sowing by means of finely distributing nozzles. The containers were irrigated gently to promote germination and growth and subsequently covered with transparent plastic hoods until the test plants had rooted. This cover caused uniform germination of the test plants, unless this had been impaired by the active ingredients. For the post-emergence treatment, the test plants were first grown to a height of 3 to 15 cm, depending on the plant habit, and only then treated with the active ingredients which had been suspended or emulsified in water. For this purpose, the test plants were either shown directly and grown in the same containers, or they were first grown separately as seedlings and transplanted into the test containers a few days prior to treatment.
(§3) Depending on the species, the test plants were kept at 10-25° C. or 20-35° C., respectively. The test period extended over 2 to 4 weeks. During this time, the test plants were tended, and their response to the individual treatments was evaluated.
(§4) Evaluation was carried out using a scale from 0 to 100. 100 means no emergence of the test plants, or complete destruction of at least the aerial moieties, and 0 means no damage, or normal course of growth. A good herbicidal activity is given at values of 70 to <90 and a very good herbicidal activity is given at values of 90 to 100.
(§5) The test plants used in the greenhouse experiments were of the following species: […]

[2] = test system: Fallopia convolvulus (POLCO); experiment: greenhouse post-emergence herbicidal test; conditions: 0.32 kg/ha, scale from 0 to 100
From the text: as §1, §2, §3, §4, §5

Setaria viridis (SETVI) [3] = experiment: greenhouse post-emergence herbicidal test; conditions: scale from 0 to 100
From the text: as §1, §2, §3, §4, §5

[4] = test system: Alopercurus myosuroides (ALOMY); experiment: greenhouse pre-emergence herbicidal test; conditions: scale from 0 to 100
From the text: as §1, §2, §3, §4, §5

[5] = test system: Lolium multiflorum (LOLMU); experiment: greenhouse pre-emergence herbicidal test; conditions: scale from 0 to 100
From the text: as §1, §2, §3, §4, §5

Setaria viridis (SETVI) [6] = experiment: greenhouse pre-emergence herbicidal test; conditions: 0.250 kg/ha, scale from 0 to 100
From the text: as §1, §2, §3, §4, §5

[7] = test system: Abutilon theophrasti (ABUTH); experiment: greenhouse post-emergence herbicidal test; conditions: 1.000 kg/ha, scale from 0 to 100
From the text: as §1, §2, §3, §4, §5

[8] = test system: Apera spica-venti (APESV); experiment: greenhouse pre-emergence herbicidal test; conditions: scale from 0 to 100, read-out: herbicidal activity against APESV; for pest or weed control at 250 g/ha: 0.250 kg/ha; for pest or weed control at 500 g/ha: 0.500 kg/ha
From the text: as §1, §2, §3, §4, §5

Avena fatua (AVEFA) = experiment: greenhouse post-emergence herbicidal test; conditions: for pest or weed control at 250 g/ha: 0.250 kg/ha; for pest or weed control at 500 g/ha: 0.500 kg/ha
From the text: as §1, §2, §3, §4, §5

[9] = test system: Abutilon theophrasti (ABUTH); experiment: greenhouse pre-emergence herbicidal test; conditions: 0.500 kg/ha, scale from 0 to 100
From the text: as §1, §2, §3, §4, §5

[10] = test system: Echinocloa crus-galli (ECHCG); experiment: greenhouse pre-emergence herbicidal test; conditions: 0.500 kg/ha, scale from 0 to 100
From the text: as §1, §2, §3, §4, §5

Setaria faberi (SETFA) = experiment: greenhouse pre-emergence herbicidal test; conditions: scale from 0 to 100
From the text: as §1, §2, §3, §4, §5

[11] = test system: Alopercurus myosuroides (ALOMY); experiment: greenhouse post-emergence herbicidal test; conditions: 0.125 kg/ha, scale from 0 to 100
From the text: as §1, §2, §3, §4, §5

[12] = test system: Lolium multiflorum (LOLMU); experiment: greenhouse post-emergence herbicidal test; conditions: 0.125 kg/ha, scale from 0 to 100
From the text: as §1, §2, §3, §4, §5

[13] = test system: Amaranthus retroflexus (AMARE); experiment: greenhouse post-emergence herbicidal test; conditions: 0.125 kg/ha, scale from 0 to 100
From the text: as §1, §2, §3, §4, §5

[14] = Avena fatua, scale from 0 to 100, read-out: herbicidal activity against AVEFA

Compound: CC(C)OC(=O)C1C=CC(NC(=O)C2(C(=O)Nc3cc(F)cc(F)c3)CCO2)C1 (mixture of isomers) [I.4]
- herbicidal activity against ECHCG ([1]; 0.32 kg/ha): very good (a very good herbicidal activity is given at values of 90 to 100)
- herbicidal activity against POLCO [2]: very good (a very good herbicidal activity is given at values of 90 to 100)
- herbicidal activity against SETVI (Setaria viridis (SETVI) [3]; 0.32 kg/ha): very good (a very good herbicidal activity is given at values of 90 to 100)

Compound: COC(=O)CC(C)NC(=O)C1(C(=O)Nc2cc(Cl)cc(Cl)c2)C=CCO1 (mixture of isomers) [I.25]
- herbicidal activity against ALOMY ([4]; 0.0625 kg/ha): good (A good herbicidal activity is given at values of 70 to <90)
- herbicidal activity against LOLMU ([5]; 0.0625 kg/ha): very good (a very good herbicidal activity is given at values of 90 to 100)

Compound: O=C([O-])C1C=CC(NC(=O)C2(C(=O)Nc3cc(Cl)cc(Cl)c3)C=CCO2)C1.[Na+] (mixture of isomers) [I.201]
- herbicidal activity against SETVI (Setaria viridis (SETVI) [6]): good (A good herbicidal activity is given at values of 70 to <90)

Compound: COC(=O)C1C=CC(NC(=O)C2(C(=O)Nc3cc(Cl)cc(Cl)c3)OC2(C)C)C1 (mixture of isomers) [I.220]
- herbicidal activity against ECHCG ([1]; 0.500 kg/ha): good (A good herbicidal activity is given at values of 70 to <90)

Compound: Cn1nnnc1NC(=O)C1(C(=O)Nc2cc(F)c(F)c(F)c2)CCO1 (racemic) [I.5]
- herbicidal activity against LOLMU ([5]; 0.250 kg/ha): very good (a very good herbicidal activity is given at values of 90 to 100)

Compound: COC(=O)CC(C)NC(=O)C1(C(=O)Nc2cc(Cl)cc(Cl)c2)OCCO1 (racemic) [I.19]
- herbicidal activity against ABUTH [7]: good (A good herbicidal activity is given at values of 70 to <90)

Compound: COC(=O)[C@@H]1C=C[C@H](NC(=O)C2(C(=O)Nc3cc(F)cc(F)c3)CCO2)C1 (stereo partly drawn) [Compound I1, methyl (1S,4R)-4-[[2-[(3,5-difluorophenyl)carbamoyl]oxetane-2-carbonyl]amino]cyclopent-2-ene-1-carboxylate]
- pest or weed control at 250 g/ha [8]: 90 to 100%
- pest or weed control at 250 g/ha (Avena fatua (AVEFA); [14]): 90 to 100%

Compound: COC(=O)C[C@H](C)NC(=O)C1(C(=O)Nc2cc(F)cc(F)c2)CCO1 (stereo partly drawn) [Compound I2, methyl (3S)-3-[[2-[(3,5-difluorophenyl)carbamoyl]oxetane-2-carbonyl]amino]butanoate]
- pest or weed control at 500 g/ha [8]: 90 to 100%

Compound: COC(=O)[C@@H]1C=C[C@H](NC(=O)C2(C(=O)Nc3cc(Cl)cc(Cl)c3)CCO2)C1 (stereo partly drawn) [Compound I6, methyl (1S,4R)-4-[[2-[(3,5-dichlorophenyl)carbamoyl]oxetane-2-carbonyl]amino]cyclopent-2-ene-1-carboxylate]
- herbicidal activity against ABUTH [9]: very good (a very good herbicidal activity is given at values of 90 to 100)
- pest or weed control at 500 g/ha [8]: 90 to 100%

Compound: COC(=O)C[C@H](C)NC(=O)C1(C(=O)Nc2cc(Cl)cc(Cl)c2)CCO1 (stereo partly drawn) [Compound I7, methyl (3S)-3-[[2-[(3,5-dichlorophenyl)carbamoyl]oxetane-2-carbonyl]amino]butanoate]
- pest or weed control at 500 g/ha [8]: 90 to 100%
- pest or weed control at 500 g/ha (Avena fatua (AVEFA); [14]): 90 to 100%

Compound: COC(=O)[C@@H]1CC[C@H](NC(=O)C2(C(=O)Nc3cc(Cl)cc(Cl)c3)CCCO2)C1 (stereo partly drawn) [Compound I15]
- herbicidal activity against ECHCG [10]: good (A good herbicidal activity is given at values of 70 to <90)
- herbicidal activity against SETFA (Setaria faberi (SETFA); 0.500 kg/ha): good (A good herbicidal activity is given at values of 70 to <90)

Compound: COC(=O)[C@@H]1C=C[C@H](NC(=O)C2(C(=O)Nc3cc(Cl)cc(Cl)c3)CCCO2)C1 (stereo partly drawn) [Compound I16, methyl (1S,4R)-4-[[2-[(3,5-dichlorophenyl)carbamoyl]tetrahydrofuran-2-carbonyl]amino]cyclopent-2-ene-1-carboxylate]
- pest or weed control at 500 g/ha [8]: 90 to 100%

Compound: COC(=O)CCCNC(=O)C1(C(=O)Nc2cc(Cl)cc(Cl)c2)CCCO1 (stereo not drawn) [Compound I18, methyl 4-[[2-[(3,5-dichlorophenyl)carbamoyl]tetrahydrofuran-2-carbonyl]amino]butanoate]
- pest or weed control at 500 g/ha [8]: 90 to 100%
- pest or weed control at 500 g/ha (Avena fatua (AVEFA); [14]): 70 to 90%

Compound: COC(=O)[C@@H]1C=C[C@H](NC(=O)C2(C(=O)Nc3cc(Cl)cc(Cl)c3)C=CCO2)C1 (stereo partly drawn) [Compound I24, methyl (1S,4R)-4-[[5-[(3,5-dichlorophenyl)carbamoyl]-2H-furan-5-carbonyl]amino]cyclopent-2-ene-1-carboxylate]
- herbicidal activity against ALOMY ([4]; 0.250 kg/ha): very good (a very good herbicidal activity is given at values of 90 to 100)
- pest or weed control at 250 g/ha (Avena fatua (AVEFA); [14]): 90 to 100%

Compound: COC(=O)[C@@H]1C=C[C@H](NC(=O)C2(C(=O)Nc3cc(Cl)cc(Cl)c3)C=CCO2)C1 (stereo partly drawn) [Compound I183, methyl (1S,4R)-4-[[5-[(3,5-dichlorophenyl)carbamoyl]-2H-furan-5-carbonyl]amino]cyclopent-2-ene-1-carboxylate]
- pest or weed control at 125 g/ha ([8]; 0.125 kg/ha): 70 to 90%

Compound: COC(=O)[C@@H]1C=C[C@H](NC(=O)C2(C(=O)Nc3cc(Cl)cc(Cl)c3)C=CCO2)C1 (stereo partly drawn) [Compound I184, methyl (1S,4R)-4-[[5-[(3,5-dichlorophenyl)carbamoyl]-2H-furan-5-carbonyl]amino]cyclopent-2-ene-1-carboxylate]
- pest or weed control at 250 g/ha [8]: 90 to 100%

Compound: COC(=O)C[C@H](C)NC(=O)C1(C(=O)Nc2cc(Cl)cc(Cl)c2)CCCO1 (stereo partly drawn) [I.17, methyl (3S)-3-[[2-[(3,5-dichlorophenyl)carbamoyl]tetrahydrofuran-2-carbonyl]amino]butanoate]
- pest or weed control at 500 g/ha [8]: 90 to 100%
- pest or weed control at 500 g/ha (Avena fatua (AVEFA); [14]): 70 to 90%

Compound: COC(=O)[C@@H]1C=C[C@H](NC(=O)C2(C(=O)Nc3cc(Cl)cc(Cl)c3)OCCS2)C1 (stereo partly drawn) [I.20, methyl (1S,4R)-4-[[2-[(3,5-dichlorophenyl)carbamoyl]-1,3-oxathiolane-2-carbonyl]amino]cyclopent-2-ene-1-carboxylate]
- pest or weed control at 250 g/ha [8]: 70 to 90%
- pest or weed control at 250 g/ha (Avena fatua (AVEFA); [14]): 90 to 100%

Compound: COC(=O)CC[C@H](C)NC(=O)C1(C(=O)Nc2cc(Cl)cc(Cl)c2)OCCS1 (stereo partly drawn) [I.21, methyl (4S)-4-[[2-[(3,5-dichlorophenyl)carbamoyl]-1,3-oxathiolane-2-carbonyl]amino]pentanoate]
- pest or weed control at 250 g/ha [8]: 90 to 100%
- pest or weed control at 250 g/ha (Avena fatua (AVEFA); [14]): 90 to 100%

Compound: COC(=O)C[C@H](C)NC(=O)C1(C(=O)Nc2cc(Cl)cc(Cl)c2)COCO1 (stereo partly drawn) [I.22]
- herbicidal activity against ALOMY [11]: very good (a very good herbicidal activity is given at values of 90 to 100)
- pest or weed control at 125 g/ha (Avena fatua (AVEFA); Avena fatua, 0.125 kg/ha, scale from 0 to 100, read-out: herbicidal activity against AVEFA): 90 to 100%
- herbicidal activity against LOLMU [12]: very good (a very good herbicidal activity is given at values of 90 to 100)

Compound: COC(=O)CCCNC(=O)C1(C(=O)Nc2cc(Cl)cc(Cl)c2)COCO1 (stereo not drawn) [I.23, methyl 4-[[4-[(3,5-dichlorophenyl)carbamoyl]-1,3-dioxolane-4-carbonyl]amino]butanoate]
- pest or weed control at 500 g/ha (Avena fatua (AVEFA); [14]): 70 to 90%

Compound: C=C1CCOC1(C(=O)Nc1cc(Cl)cc(Cl)c1)C(=O)NC(C)CC(=O)OC (stereo not drawn) [I.122]
- herbicidal activity against AMARE [13]: good (A good herbicidal activity is given at values of 70 to <90)

Compound: O=C(O)CCCNC(=O)C1(C(=O)Nc2cc(F)cc(F)c2)CCO1 (stereo not drawn) [I.126]
- herbicidal activity against SETVI (Setaria viridis (SETVI) [3]; 0.0625 kg/ha): good (A good herbicidal activity is given at values of 70 to <90)

Compound: CS(=O)(=O)CCOC(=O)CCCNC(=O)C1(C(=O)Nc2cc(F)cc(F)c2)CCO1 (stereo not drawn) [I.130]
- herbicidal activity against AVEFA (Avena fatua (AVEFA); 0.0625 kg/ha, scale from 0 to 100): good (A good herbicidal activity is given at values of 70 to <90)

Compound: CC(C)OC(=O)C1C=CC(NC(=O)C2(C(=O)Nc3cc(F)c(F)c(F)c3)CCO2)C1 (stereo not drawn) [I.133]
- herbicidal activity against ALOMY ([4]; 0.13128 kg/ha): very good (a very good herbicidal activity is given at values of 90 to 100)
- herbicidal activity against LOLMU ([5]; 0.13128 kg/ha): very good (a very good herbicidal activity is given at values of 90 to 100)
- herbicidal activity against SETFA (Setaria faberi (SETFA); 0.13128 kg/ha): very good (a very good herbicidal activity is given at values of 90 to 100)

Compound: CC(C)OC(=O)C1C=CC(NC(=O)C2(C(=O)Nc3cccc(OC(F)(F)F)c3)CCO2)C1 (stereo not drawn) [I.134]
- herbicidal activity against ECHCG ([1]; 0.0625 kg/ha): very good (a very good herbicidal activity is given at values of 90 to 100)
